1 molecule from publication PMC7956564, “Porphyromonas gingivalis HmuY and Bacteroides vulgatus Bvu—A Novel Competitive Heme Acquisition Strategy” (International Journal of Molecular Sciences, 2021) can be followed below.

Broadly, the Kd is the equilibrium constant for the complex coming apart. A high value points to a looser complex.

For the assay, the target named is T1, Bvu (Phocaeicola vulgatus, UniProt A6L2D9).
T1 construct: gene BVU_2192
In words: biochemical.

T1 sequence (A6L2D9 entry or part of it): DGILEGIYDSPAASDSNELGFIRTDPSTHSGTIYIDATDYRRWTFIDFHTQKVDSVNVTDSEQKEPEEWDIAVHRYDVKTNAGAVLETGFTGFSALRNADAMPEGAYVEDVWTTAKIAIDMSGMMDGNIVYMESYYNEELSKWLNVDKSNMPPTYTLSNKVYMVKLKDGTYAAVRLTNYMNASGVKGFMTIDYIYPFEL

Regarding `C=CC1=C(C)C2=Cc3c(C=C)c(C)c4[n]3[Fe][n]3c(c(C)c(CCC(=O)O)c3=CC3=NC(=C4)C(C)=C3CCC(=O)O)=CC1=N2` [Fe(II)heme], the Kd is 1.6 nM.
